Results from patent US4746675A, “External pharmaceutical composition” (Teijin Limited, priority 1983, dated 1988).

Columns and labels:
[1] = concentration of cephalothin sodium in blood after intrarectal administration of suppository; assay type: in vivo, Beagle dog; settings: versus the comparative suppository
Protocol: Eighty parts by weight of cacoa butter, 10 parts by weight of compound (168) and 10 parts by weight of cephalothin sodium were uniformly mixed and then slightly warmed. The mixture was filled in a suppository container to form a suppository containing 1 g of the mixture. The suppository was administered intrarectally to a Beagle dog, and the concentration of cephalothin sodium in the blood after administration was measured by the cup method.

blood glucose level = assay: blood glucose after intrarectal administration of hog insulin suppository to rabbits; assay type: in vivo, rabbit; settings: for Percent decrease of the blood glucose level from that before the administration: hog insulin 9.6 units, intrarectal, rabbit; for absorption of insulin from the suppository: versus the comparative suppository
Protocol: Sixty parts by weight of fractionated coconut oil and 10 parts by weight of compound (168) or compound (173) were uniformly mixed, and then hog insulin was gradually added to form a uniform dispersion. The dispersion was filled in a gelatin capsule for suppositories to form a gelatin capsular suppository. These suppository contained 9.6 units of insulin. The suppository was intrarectally administered to a rabbit, and the blood glucose level after administration was measured by the glucose oxidase method.

serum calcium level [2] = assay: serum calcium after intrarectal administration of calcitonin composition to rats; assay type: in vivo, rat; settings: versus the comparative suppository
Text: Cacao butter (93 parts by weight) and 7 parts by weight of compound (168) or compound (173) were uniformly mixed, and (Asu^1.7)-eel calcitonin was gradually added and mixed to form a uniform composition. The composition was slightly warmed, and placed into a suppository container to form a suppository for rats having a diameter of about 3 mm and a length of about 6 mm. This suppository contained 0.7 MRC unit of calcitonin. The suppository was intrarectally administered to a rat, and the concentration of calcium in the blood serum after administration was measured by using a calcium measuring kit (made by Iatoron Co.).
Various […] were prepared from cacao butter, the various penetration enhancers shown in Table 12 and [Asu^1.7 ]-eel calcitonin, and tested in the same way as in Example 85.

carrageenan edema = carrageenan edema inhibiting effect of betamethasone valerate ointments; assay type: in vivo, rat; settings: for Percentage inhibition based on the control: 0.15% betamethasone valerate, 9.85% Compound (168) or none; for Percentage inhibition vs. control: Table 5, betamethasone valerate ointment with penetration enhancer
Procedure, shortened: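 Rat carrageenan paw edema: 0.1 ml of 1% carrageenan injected into the right hind paw of 150–175 g rats. Ointment containing 0.15 part betamethasone valerate plus penetration enhancer, 100 mg, applied to the inflamed site at 0.5, 1 and 2 h. Paw volume measured by mercury displacement at 0, 3, 5 and 6 h.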

[3] = test system: eye (cornea, iris, conjunctiva); assay: primary eye irritation (Draize) in rabbits; assay type: in vivo, white native male rabbits; settings: 2.4% soln, average of three rabbits
serum calcium level [4] = assay: serum calcium after nasal administration of calcitonin nasal drop to rabbits; assay type: in vivo, New Zealand white male rabbit; settings: for Percent decrease of the serum calcium level from before administration: [Asu^1.7]-eel calcitonin nasal drop, 15 units/50 μl, rabbit
Protocol: This nasal drop contained 15 units/50 μl of calcitonin. Fifty microliters of the nasal drop was administered to the nasal cavity of a New Zealand white male rabbit, and the concentration of calcium in the serum after administration was measured by using a calcium measuring kit (made by Iatron Co.).

[5] = concentration of indomethacin in rat blood after application of ointment to the back; settings: versus the comparative ointments
Protocol: An ointment was prepared from 1 part by weight of indomethacin, 10 parts by weight of compound (168) and 89 parts by weight of a hydrophilic ointment (composed of 250 parts of white Vaseline, 220 parts by weight of stearyl alcohol, 120 parts by weight of propylene glycol, 15 parts by weight of sodium laurylsulfate, 0.25 part by weight of ethyl p-hydroxybenzoate, 0.15 part by weight of propyl p-hydroxybenzoate and a small amount of purified water). The back of a rat (body weight about 250 g) was cut by an electric hair-clipper, and 100 mg of the resulting ointment was applied by a finger to a circular unhaired portion, 4 cm in diameter. The blood was drawn from the tail of the rat periodically, and the concentration of indomethacin in the blood was determined periodically by high-performance liquid chromatography.
Various ointments were prepared from 1 part by weight of indomethacin, 10 parts of each of various penetration enhancers shown in Table 2 and the hydrophilic ointment, and tested as in Example 1.

Question: What does the source list for `CCCCCCCC/C=C\CCCCCCCC(=O)OCC(O)COC(=O)[C@@H]1CCC(=O)N1` (stereo partly drawn) [Compound (168), 2-hydroxy-3-oleoyloxy-1-pyroglutamyloxypropane]?
Answer: absorption of cephalothin sodium from the suppository [1]: better; Percent decrease of the blood glucose level from that before the administration (blood glucose level; 30 min): 32.8%; Percent decrease of the blood glucose level from that before the administration (blood glucose level; 1 hr): 36.3%; Percent decrease of the blood glucose level from that before the administration (blood glucose level; 2 hrs): 19.1%; Percent decrease of the blood glucose level from that before the administration (blood glucose level; 3 hrs): 5.2%; absorption of insulin from the suppository (blood glucose level): better; absorption of calcitonin from the suppository (serum calcium level [2]): better; Percentage inhibition based on the control (carrageenan edema; 3 hrs): 19.7%; Percentage inhibition based on the control (carrageenan edema; 5 hrs): 36.8%; Percentage inhibition based on the control (carrageenan edema; 6 hrs): 39.2%; Primary irritation score, Conjunctiva ([3]; 1 hour): 2.0; Primary irritation score, Cornea ([3]; 1 hour): 0; Primary irritation score, Iris ([3]; 1 hour): 0; Primary irritation score, Total ([3]; 1 hour): 2.0; Primary irritation score, Conjunctiva ([3]; 3 hours): 2.0; Primary irritation score, Cornea ([3]; 3 hours): 0; Primary irritation score, Iris ([3]; 3 hours): 0; Primary irritation score, Total ([3]; 3 hours): 2.0; Primary irritation score, Conjunctiva ([3]; 6 hours): 1.3; Primary irritation score, Cornea ([3]; 6 hours): 0; Primary irritation score, Iris ([3]; 6 hours): 0; Primary irritation score, Total ([3]; 6 hours): 1.3; Primary irritation score, Conjunctiva ([3]; 24 hours): 0; Primary irritation score, Cornea ([3]; 24 hours): 0; Primary irritation score, Iris ([3]; 24 hours): 0; Primary irritation score, Total ([3]; 24 hours): 0; Primary irritation score, Conjunctiva ([3]; 48 hours): 0; Primary irritation score, Cornea ([3]; 48 hours): 0; Primary irritation score, Iris ([3]; 48 hours): 0; Primary irritation score, Total ([3]; 48 hours): 0; Primary irritation score, Conjunctiva ([3]; 72 hours): 0; Primary irritation score, Cornea ([3]; 72 hours): 0; Primary irritation score, Iris ([3]; 72 hours): 0; Primary irritation score, Total ([3]; 72 hours): 0; Primary irritation score, Conjunctiva ([3]; 96 hours): 0; Primary irritation score, Cornea ([3]; 96 hours): 0; Primary irritation score, Iris ([3]; 96 hours): 0; Primary irritation score, Total ([3]; 96 hours): 0; Primary irritation score, Conjunctiva ([3]; 168 hours): 0; Primary irritation score, Cornea ([3]; 168 hours): 0; Primary irritation score, Iris ([3]; 168 hours): 0; Primary irritation score, Total ([3]; 168 hours): 0; Percent decrease of the serum calcium level from before administration (serum calcium level [4]; 1 hr): 6.1%; Percent decrease of the serum calcium level from before administration (serum calcium level [4]; 2 hrs): 4.0%; Percent decrease of the serum calcium level from before administration (serum calcium level [4]; 3 hrs): 1.8%; Percent decrease of the serum calcium level from before administration (serum calcium level [4]; 5 hrs): 0.9%; absorption of calcitonin from the nasal composition (serum calcium level [4]; versus the comparative composition): better; absorption of indomethacin from the ointment [5]: better

Question: Which results are given for `CCCCCCCCCCCCCCCCCC(=O)OCC(O)COC(=O)[C@@H]1CCC(=O)N1` (stereo partly drawn) [Compound (173), 2-hydroxy-3-octadecanoyloxy-1-pyroglutamyloxypropane]?
Answer: Percent decrease of the blood glucose level from that before the administration (blood glucose level; 30 min): 29.4%; Percent decrease of the blood glucose level from that before the administration (blood glucose level; 1 hr): 33.3%; Percent decrease of the blood glucose level from that before the administration (blood glucose level; 2 hrs): 18.6%; Percent decrease of the blood glucose level from that before the administration (blood glucose level; 3 hrs): 3.7%; absorption of insulin from the suppository (blood glucose level): better; absorption of calcitonin from the suppository (serum calcium level [2]): better; Percentage inhibition vs. control (carrageenan edema; 3 hrs): 15.3%; Percentage inhibition vs. control (carrageenan edema; 5 hrs): 32.3%; Percentage inhibition vs. control (carrageenan edema; 6 hrs): 33.4%
